Results taken from patent publication US20260216347A1, “Substituted Imidazo-Based Compounds as Ligand Directed Degraders of IRAK3” (Celgene Corporation, priority 2022, published 2026).

Columns and labels:
IRAK3-ePL = target: T1, IRAK3-ePL (Homo sapiens, UniProt Q9Y616); test: IRAK3-ePL overexpressing degradation assay (InCELL Hunter luminescence, dose response); assay type: cell-based; settings: for IRAK3 ePL degradation Ymin: lowest percentage of target protein remaining following compound treatment; for DC50: read-out: IRAK3 ePL degradation EC50
T1 construct: expressed in transfected cells; host or cells: 293T CRBN OE/GSPT1 G575N KI cells, lentiviral transduction, puromycin selected
How it was run: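 Lenti-X 293T CRBN/GSPT1 G575N cells stably expressing IRAK3-ePL (5,000/well) treated overnight at 37° C with 10-point 3-fold dilutions from 10 μM, 0.2% DMSO. InCELL Hunter luminescence, background subtracted using Ataluren wells and normalized to DMSO; EC50 from four-parameter logistic fit.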

IRAK3 = target: T2, IRAK3 (Homo sapiens, UniProt Q9Y616); test: IRAK endogenous HTRF degradation assay (Total-IRAK3 HTRF kit); assay type: cell-based; settings: overnight incubation, lowest percentage of protein remaining
T2 construct: IRAK Endogenous HTRF Degradation Assay; endogenous in cells
T2 sequence (Q9Y616 1-596): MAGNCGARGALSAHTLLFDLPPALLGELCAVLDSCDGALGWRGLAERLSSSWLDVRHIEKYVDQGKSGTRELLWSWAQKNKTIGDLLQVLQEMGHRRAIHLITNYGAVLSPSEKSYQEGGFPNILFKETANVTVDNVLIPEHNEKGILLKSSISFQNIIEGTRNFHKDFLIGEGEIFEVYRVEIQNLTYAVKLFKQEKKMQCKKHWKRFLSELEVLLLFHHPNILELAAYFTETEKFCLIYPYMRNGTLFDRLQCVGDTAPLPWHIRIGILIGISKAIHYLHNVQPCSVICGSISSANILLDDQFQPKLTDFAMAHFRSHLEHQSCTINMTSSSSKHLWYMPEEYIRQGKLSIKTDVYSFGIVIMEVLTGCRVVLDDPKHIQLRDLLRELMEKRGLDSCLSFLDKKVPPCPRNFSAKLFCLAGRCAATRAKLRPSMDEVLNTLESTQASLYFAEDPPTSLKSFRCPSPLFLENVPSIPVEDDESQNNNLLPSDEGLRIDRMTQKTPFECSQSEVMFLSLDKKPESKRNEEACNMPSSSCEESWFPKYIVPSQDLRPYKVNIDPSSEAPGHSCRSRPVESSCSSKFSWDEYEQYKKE
Experimental: Example B2. IRAK Endogenous HTRF Degradation Assay
Cells (~50 k) were plated in Cisbio 96-well low volume white plates (Cisbio: cat #66PL96005). Compounds were dissolved in DMSO and a 3-fold serial dilution was performed using a TECAN D300E. Cells were incubated with the compound overnight. Total-IRAK3 HTRF kit from Cisbio was used for degradation analysis (Cisbio: 63ADK101PEH). Cryptate and D2 antibodies were diluted in Detection buffer as per manufacturers recommendation. Then 2 μL of each solution was added to 16 μL lysate. Buffer control (lysis buffer detection buffer), Cryptate control (lysis buffer+cryptate antibody+detection buffer), and Negative control (lysis buffer+cryptate antibody+D2 antibody) were made as per manufacturers recommendation. Post incubation with antibodies the HTRF signal was measured using a Perkin Elmer Envision reader and the HTRF signal was calculated using formula: (Emission at 665 nm/Emission at 615 nm)*10,000. All HTRF values were normalized to the average value of DMSO. The average value of the DMSO control wells were set to equal 100% of the relative IRAK3 protein levels. Normalized luminescence values were plotted on a graph as a function of compound concentration. Compound concentration was plotted on the x-axis and the corresponding normalized IRAK3 protein levels on the y-axis. The EC50 value (the half-maximum effective concentration) of a compound for the degradation of the IRAK3 was calculated using a four-parameter logistic model (sigmoidal dose-response model) (FIT=(A+{(B−A)/1+[(C/x)D]})) where C is the inflection point (EC50), D is the […], and A and B are the low and high limits of the fit, respectively). The Ymin was calculated by determining the lowest percentage of target protein remaining following compound treatment. Dmax was calculated from Ymin (% Dmax=100−Ymin).
Using these assays, IC50, Dmax, EC50, and DC50 values of the following compounds were determined. Dmax is defined as the maximum percent degradation achieved and DC50 is the concentration at which 50% degradation is achieved.

Structure (SMILES) | IRAK3 ePL degradation Ymin (IRAK3-ePL) | DC50 (IRAK3-ePL) | IRAK3 HTRF degradation Ymin (IRAK3)
Cc1cc(-c2cnc(Nc3cnn(C4CCN(CCN5CCN(c6ccc7c(C8CCC(=O)NC8=O)nn(C)c7c6)CC5)CC4)c3)c3nccn23)c(F)cc1F (stereo not drawn) [Compound 39, 3-(6-(4-(2-(4-(4-((5-(2,4-difluoro-5-methylphenyl)imdazo [1,2-a]pyrazin-8-yl)amino)-1H-pyrazol-1-yl)piperidin-1-yl)ethyl)piperazin-1-yl)-1-methyl-1H-indazol-3-yl)piperidine-2,6-dione] | 32% | 0.51 nM | 14. %
Cc1cc(-c2cnc(Nc3cnn([C@H]4CC[C@H](CCN5CCN(c6ccc(C7CCC(=O)NC7=O)cc6)C[C@H]5C)CC4)c3)c3nccn23)c(F)cc1F (stereo partly drawn) [Compound 37, 3-(4-((R)-4-(2-((trans)-4-(4-((5-(2,4-difluoro-5-methylphenyl)imidazo[1,2-a]pyrazin-8-yl)amino)-1H-pyrazol-1-yl)cyclohexyl)ethyl)-3-methylpiperazin-1-yl)phenyl) piperidine-2,6-dione] | 20% | 3.8 nM | 10%
Cc1cc(-c2cnc(Nc3cnn(C4CCN(CCN5CCN(c6cccc7c(C8CCC(=O)NC8=O)nn(C)c67)CC5)CC4)c3)c3nccn23)c(F)cc1F (stereo not drawn) [Compound 41, 3-(7-(4-(2-(4-(4-((5-(2,4-difluoro-5-methylphenyl)imdazo [1,2-a]pyrazin-8-yl)amino)-1H-pyrazol-1-yl)piperidin-1-yl)ethyl)piperazin-1-yl)-1-methyl-1H-indazol-3-yl)piperidine-2,6-dione] | 25% | 0.68 nM | 8.7%
Cc1cc(-c2cnc(Nc3cnn([C@@H]4CCN(CCN5CCN(c6ccc(C7CCC(=O)NC7=O)cc6)C[C@H]5C)[C@H](C)C4)c3)c3nccn23)c(F)cc1F (stereo partly drawn) [Compound 29, 3-(4-((R)-4-(2-((2R,4R)-4-(4-((5-(2,4-difluoro-5-methylphenyl)imdazo [1,2-a]pyrazin-8-yl)amino)-1H-pyrazol-1-yl)-2-methylpiperidin-1-yl)ethyl)-3-methylpiperazin-1-yl)phenyl) piperidine-2,6-dione] | 24% | 0.51 nM | 14%
Cc1cc(-c2cnc(N[C@@H]3CCN(C4CCN(CCN5CCN(c6ccc(C7CCC(=O)NC7=O)cc6)CC5)CC4)C3)c3nccn23)c(F)cc1F (stereo partly drawn) [Compound 60, 3-(4-(4-(2-(4-((R)-3-((5-(2,4-difluoro-5-methylphenyl)imdazo [1,2-a]pyrazin-8-yl)amino)pyrrolidin-1-yl)piperidin-1-yl)ethyl)piperazin-1-yl)phenyl) piperidine-2,6-dione] | 92% | 0.51 nM | 96%
Cc1cc(-c2cnc(N(C)c3cnn(C4CCN(CCN5CCN(c6ccc(C7CCC(=O)NC7=O)cc6)CC5)CC4)c3)c3nccn23)c(F)cc1F (stereo not drawn) [Compound 52, 3-(4-(4-(2-(4-(4-((5-(2,4-difluoro-5-methylphenyl)imdazo [1,2-a]pyrazin-8-yl)(methyl)amino)-1H-pyrazol-1-yl)piperidin-1-yl)ethyl)piperazin-1-yl)phenyl) piperidine-2,6-dione] | 40% | 96 nM | 74%
Cc1cc(-c2cnc(N[C@H]3CCN(C4CCN(CCN5CCN(c6ccc(C7CCC(=O)NC7=O)cc6)CC5)CC4)C3)c3nccn23)c(F)cc1F (stereo partly drawn) [Compound 65, 3-(4-(4-(2-(4-((S)-3-((5-(2,4-difluoro-5-methylphenyl)imdazo [1,2-a]pyrazin-8-yl)amino)pyrrolidin-1-yl)piperidin-1-yl)ethyl)piperazin-1-yl)phenyl) piperidine-2,6-dione] | 86% | 3300 nM | 96%
Cc1cccc(-c2cnc(Nc3cnn([C@H]4CC[C@@H](CCN5CCN(c6ccc(C7CCC(=O)NC7=O)cc6)CC5)CC4)c3)c3nccn23)c1 (stereo partly drawn) [Compound 45, 3-(4-(4-(2-((cis)-4-(4-((5-(m-tolyl)imidazo [1,2-a]pyrazin-8-yl)amino)-1H-pyrazol-1-yl)cyclohexyl)ethyl)piperazin-1-yl)phenyl) piperidine-2,6-dione] | 26% | 7.2 nM | 15%
Cc1ccc(F)c(-c2cnc(Nc3cnn(C4CCN(CCN5CCN(c6ccc(C7CCC(=O)NC7=O)cc6)CC5)CC4)c3)c3nccn23)c1 (stereo not drawn) [Compound 36, 3-(4-(4-(2-(4-(4-((5-(2-fluoro-5-methylphenyl)imdazo [1,2-a]pyrazin-8-yl)amino)-1H-pyrazol-1-yl)piperidin-1-yl)ethyl)piperazin-1-yl)phenyl) piperidine-2,6-dione] | 24% | 1.1 nM | 9.8%
CN1CCOc2ccc(-c3cnc(Nc4cnn([C@H]5CC[C@H](CCN6CCN(c7ccc(C8CCC(=O)NC8=O)cc7)CC6)CC5)c4)c4nccn34)cc21 (stereo partly drawn) [Compound 40] | 24% | 1.5 nM | 8.5%

Continued by falling DC50 (IRAK3-ePL), values first:

IRAK3 ePL degradation Ymin (IRAK3-ePL) | DC50 (IRAK3-ePL) | IRAK3 HTRF degradation Ymin (IRAK3) | Structure (SMILES)
25% | 4.2 nM | 8.6% | Cc1cccc(-c2cnc(Nc3cnn([C@H]4CC[C@H](CCN5CCN(c6ccc(C7CCC(=O)NC7=O)cc6)CC5)CC4)c3)c3nccn23)c1 (stereo partly drawn) [Compound 64]
23% | 0.75 nM | 8.6% | Cc1cc(-c2cnc(Nc3cnn(C4CCN(CCN5[C@@H](C)CN(c6ccc(C7CCC(=O)NC7=O)cc6)C[C@@H]5C)CC4)c3)c3nccn23)c(F)cc1F (stereo partly drawn) [Compound 56, 3-(4-((3S,5S)-4-(2-(4-(4-((5-(2,4-difluoro-5-methylphenyl)imdazo [1,2-a]pyrazin-8-yl)amino)-1H-pyrazol-1-yl)piperidin-1-yl)ethyl)-3,5-dimethylpiperazin-1-yl)phenyl) piperidine-2,6-dione]
25% | 0.51 nM | 9.1% | C[C@H]1CN(c2ccc(C3CCC(=O)NC3=O)cc2)CCN1CCN1CCC(n2cc(Nc3ncc(C4CC4)n4ccnc34)cn2)CC1 (stereo partly drawn) [Compound 38, 3-(4-((S)-4-(2-(4-(4-((5-cyclopropylimidazo[1,2-a]pyrazin-8-yl)amino)-1H-pyrazol-1-yl)piperidin-1-yl)ethyl)-3-methylpiperazin-1-yl)phenyl) piperidine-2,6-dione]
21% | 0.51 nM | 7.5% | Cc1cc(-c2cnc(Nc3cnn([C@@H]4CCN(CCN5CCN(c6ccc(C7CCC(=O)NC7=O)cc6)C[C@@H]5C)[C@H](C)C4)c3)c3nccn23)c(F)cc1F (stereo partly drawn) [Compound 59, 3-(4-((S)-4-(2-((2R,4R)-4-(4-((5-(2,4-difluoro-5-methylphenyl)imdazo [1,2-a]pyrazin-8-yl)amino)-1H-pyrazol-1-yl)-2-methylpiperidin-1-yl)ethyl)-3-methylpiperazin-1-yl)phenyl) piperidine-2,6-dione]
25% | 0.51 nM | 8.9% | Cc1cc(-c2cnc(Nc3cnn([C@H]4CCN(CCN5CCN(c6ccc(C7CCC(=O)NC7=O)cc6)CC5)C[C@H]4F)c3)c3nccn23)c(F)cc1F (stereo partly drawn) [Compound 63, 3-(4-(4-(2-((3R,4S)-4-(4-((5-(2,4-difluoro-5-methylphenyl)imdazo [1,2-a]pyrazin-8-yl)amino)-1H-pyrazol-1-yl)-3-fluoropiperidin-1-yl)ethyl)piperazin-1-yl)phenyl) piperidine-2,6-dione]
